Data reported in ChEMBL document CHEMBL1129528, “Synthesis and biological evaluation of N-acetylneuraminic acid-based rotavirus inhibitors” (J Med Chem, 1996).

What was measured:
Type in all cases: functional, organism-based
Rotavirus [1] = assay: Inhibitory activity against NCDV(bovine) rotavirus strain.
Rotavirus [2] = assay: Inhibitory activity against SA11 (simian) rotavirus strain.
Rotavirus [3] = assay: Inhibitory activity against UK(bovine) rotavirus strain.
Rotavirus [4] = assay: Inhibitory activity against Wa(human) rotavirus strain.

Structure (SMILES) | IC50 (Rotavirus [1]; Rotavirus) [mM] | IC50 (Rotavirus [2]; Rotavirus) [mM] | IC50 (Rotavirus [3]) [mM] | IC50 (Rotavirus [4]) [mM] | IC50 (Rotavirus [1]) [mM] | IC50 (Rotavirus [2]) [mM]
COC1OC(CSC2(C(=O)O)CC(O)C(NC(C)=O)C([C@H](O)[C@H](O)COC(C)=O)O2)C(O)C(O)C1NC(C)=O (some centres undefined) | 0.35 | > 25 | 12.5 | > 25 | – | –
CC(=O)NC1C(O)CC(SC[C@@H](O)C2OC3OC(C)(C)OC3C2O)(C(=O)O)OC1[C@H](O)[C@H](O)CO (some centres undefined) | 6.25 | 6.25 | 25 | > 25 | – | –
COC1OC(CSC2(C(=O)O)CC(O)C(NC(C)=O)C([C@H](O)[C@H](O)COC(C)=O)O2)C(OC(C)=O)C(O)C1O (some centres undefined) | 1.5 | 25 | 12.5 | > 25 | – | –
COC1OC(CSC2(C(=O)O)CC(O)C(NC(C)=O)C([C@H](O)[C@H](O)CO)O2)C(O)C(O)C1O (stereo in doubt; 14) | – | – | – | – | 6.25 | 25
CO[C@H]1O[C@H](CSC2(C(=O)O)CC(O)C(NC(C)=O)C(C(O)[C@H](O)CO)O2)[C@@H](O)[C@@H]1O (single isomer, unassigned) | 6.25 | > 25 | > 25 | > 25 | – | –
COC1OC(CSC2(C(=O)O)CC(O)C(NC(C)=O)C([C@H](O)[C@H](O)CO)O2)C(O)C(O)C1NC(C)=O (some centres undefined) | 6.25 | 25 | > 25 | > 25 | – | –

Further compounds by falling IC50 (Rotavirus [1]; Rotavirus), results first:

IC50 (Rotavirus [1]; Rotavirus) [mM] | IC50 (Rotavirus [2]; Rotavirus) [mM] | IC50 (Rotavirus [3]) [mM] | IC50 (Rotavirus [4]) [mM] | IC50 (Rotavirus [1]) [mM] | IC50 (Rotavirus [2]) [mM] | Structure (SMILES)
6.25 | 12.5 | > 25 | > 25 | – | – | COC1OC(CSC2(C(=O)O)CC(O)C(NC(C)=O)C([C@H](O)[C@H](O)CO)O2)C(O)C(O)C1O (stereo in doubt; 16)
6.25 | 25 | > 25 | > 25 | – | – | COC1OC(CO)C(SC2(C(=O)O)CC(O)C(NC(C)=O)C([C@H](O)[C@H](O)CO)O2)C(O)C1O (some centres undefined)
1.5 | > 25 | 25 | > 25 | – | – | COC1OC(CSC2(C(=O)O)CC(O)C(NC(C)=O)C([C@H](O)[C@H](O)COC(C)=O)O2)C(O)C(O)C1O (some centres undefined)
